# What was measured:
# OPM2 cells [1] = assay: Cell proliferation assay (ViaLight, cellular ATP); assay type: cell-based; details: Homo sapiens, OPM-2, 120 h, 5 days, 5 μM to 1 nM
# Method in brief: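 1×10^3 cells per well exposed to compounds at final 5 μM to 1 nM for 5 days. Viability read as cellular ATP by ViaLight luminescence, technical triplicates. GI50 computed from the dose–response.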
# [2] = tested on: pAKT (PI3K substrate) and MYC (BET target protein); assay: Western Blot analysis in OPM2 cells; assay type: cell-based, human; details: 4 hours
# Method: OPM2 cells (1.2×10^6) were treated with Cpd 010 or DMSO control at indicated concentrations for 4 hours. Lysates were prepared in ice-cold RIPA lysis buffer (Thermofisher, Life Technologies) and supplemented with Halt protease phosphatase inhibitor cocktail (Thermofisher, Pierce Biotechnology). Protein concentrations of lysate samples were determined by bicinchoninic acid assay (BCA assay) using the Thermo Scientific Pierce BCA Protein Assay Kit (ThermoFisher, Life Technologies) as per manufacturer's instructions. Absorbance for protein concentration estimation was measured using a BMG OPTIMA (Fluostar optima, BMG Labtech). Lysates (25-50 μg) were separated on pre-cast gels (Bis-Tris 4-12% gradient gels) (Bolt, Life Technologies) and transferred onto polyvinylidene difluoride (PVDF) membranes (Immobilon-FL, Merck). The membranes were sequentially incubated with primary antibodies o.n. at 4° C.; mouse anti-β-actin (Sigma-Aldrich, clone AC-74), rabbit anti-cMyc (Cell Signaling, #9402S), rabbit anti-pAKT Ser473 (Cell Signaling, #9271), rabbit anti-pS6 Ser240/244 (Cell Signaling, #2215). Subsequently they were incubated with horse radish pe-roxidase (HRP)-conjugated secondary antibodies for 1-2 h at r.t before the detection of proteins by enzymatic (chemiluminescent) reaction using a ChemiDoc^Tm XRS+ System (Bio-Rad La-boratories Inc.). […]
# MYC target genes = assay: RNA-Seq and Gene Set Enrichment Analysis (GSEA) in OPM2 cells; assay type: cell-based, human; details: 250 nM, 2 h
# Method: OPM2 cells (4×10^6) were treated with 250 nM of Cpd 010 or DMSO vehicle for 2 h. Cells pellets were collected, and RNA was extracted using the Nucleospin RNA extraction kit (Macherey-Nagel) as per the manufacturer's instructions. The QuantSeq 30 mRNA-seq Library Prep Kit for Illumina (Lexogen) was used to generate libraries as per the manufacturer's instructions, which were sequenced on the NextSeq (Illumina; 75 bp SE). GSEA2-2.2.2 was used for identification of enriched signatures obtained from the MSigDB Hallmarks datasets (Liber-zon et al., 2015). Samples were prepared in technical triplicates.
# [3] = tested on: MLL-AF9 cells (IBET-151-sensitive and IBET-151-resistant); assay: Apoptosis assay in BET-inhibitor-resistant cells (Annexin V/PI); assay type: cell-based, mouse; details: 72 h, Annexin V/PI
# Method: Mouse AML cells; MLL-AF9 (IBET-151-sensitive and IBET-151-resistant) (5×10^4) were treated with indicated compounds for 72 h. Apoptotic analysis was performed by flow cytometry using Annexin V/propidium iodide (PI) stains. Data were collected on a BD LSR-Fortessa X20 (BD Biosciences) and analysed using FlowJo Software, version 10.0.7 (Tree Star). IC50 were calculated using the GraphPad Prism Software Version 7.0c. Data are representative of biological triplicates.
# OPM2 cells [4] = assay: Synergy between PI3K and BET inhibitors, apoptosis assay (TMRE) and synergy score; assay type: cell-based, human
# Method: An apoptosis assay using TMRE stain by flow cytometry was performed in OPM2 cells with indicated compounds. […] Using Synergyfinder web application (https://synergyfinder.fimm.fi), synergy score was calculated. Zero Interaction Potency (ZIP) reference models was utilised.
# Vk*MYC myeloma cells = assay: In vivo therapeutic assessment, Vk*MYC multiple myeloma mouse model; details: once daily, 5 days a week, 3 weeks
# Method: For Vk*MYC multiple myeloma mouse models, wild type C57/B16 mice were irradi-ated with 2 fractions of 3.3Gy (Gammacell® 40 caesium source, Atomic Energy of Canada Ltd., Ontario, Canada) prior to transplantation of Vk*MYC myeloma cells (2.4×10^5). Mice were monitored for tumour progression by measuring M-proteins via serum protein electropho-resis (SPEP). Mice were treated with 3 weeks of Cpd 010 or vehicle once daily (5 days a week) for 3 weeks when their average SPEP has reached 7-10%. Serial measurement of SPEP was carried out during and post therapy. Overall survival was recorded.
# BRD4 [5] = molecular target: T1, BRD4 (Homo sapiens, UniProt O60885); assay: Cellular thermal shift assay (CETSA) in Ramos cells; assay type: cell-based; parameters: endogenous in cells; details: 20 μM, 40 min, vs DMSO
# Method: Ramos cells (human Burkitt lymphoma cell line) at 20×10^6 were washed in PBS followed by resuspension in 5 mL serum-free RPMI. They were treated either with Cpd 010 or DMSO at 20 μM for 40 min at 37° C. with 5% CO2. Cells were then collected, resuspended in PBS and separated into PCR tubes. They were heated at designated temperature for strictly 3 min followed by another 3 min at 25° C. on ABI Applied Biosystems 9902 Veriti PCR Thermal Cycler. Immediately, they were placed in liquid nitrogen for snap freezing. The samples were freeze-thawed until the final samples were place on ice. They were centrifuged and supernatants were collected. Loading dye was mixed and these were processed as per our Western Blot protocol (see above). The following primary antibodies were used; rabbit BRD4 (Cell Signaling, #13440), rabbit BRD2 (Cell Signaling, #5848), and mouse anti-β-actin (Sigma-Aldrich, clone AC-74).
# BRD4 [6] = molecular target: T1, BRD4; assay: Chromatin immunoprecipitation and sequencing analysis in OPM2 cells; assay type: cell-based; parameters: endogenous in cells; host or cells: OPM2; details: 250 nM, 2 h
# Method: OPM2 cells (4×10^6) were treated with 250 nM of Cpd 010 or DMSO control for 2 h. Cells were cross-linked, and nuclei were lysed to achieve a mean DNA fragment size of 300-500 bp. Immunoprecipitation was performed using protein A/G magnetic beads for at least 12 h at 4° C. using the following antibodies: anti-BRD4 anti-H3K27Ac, anti-RNA polymerase II. Reverse crosslinking of DNA was performed, and DNA was purified using QIAquick PCR purification kit. The KAPA Hyper Prep Kit was used to generate libraries as per the manufacturer's instruction, which sequenced on the NextSeq (Illumina; 75 bp SE).
smiles,measurement,setting,value
"CC(=O)N1c2ccc(-c3ccc(CNC(=O)c4cn5cc(-c6cnc(N)nc6)nc(N6CCOCC6)c5n4)cc3)cc2CC[C@@H]1C [Cpd 010, (S)-N-(4-(1-acetyl-2-methyl-1,2,3,4-tetrahydroquinolin-6-yl)benzyl)-6-(2-aminopyrimidin-5-yl)-8-morpholinoimidazo[1,2-a]pyrazine-2-carboxamide]",GI50,OPM2 cells [1],≤ 100 nM
same,levels of pAKT and MYC,[2],suppressed levels of both pAKT (PI3K substrate) and MYC (BET target protein) at all test concentrations
same,gene set enrichment,MYC target genes,enrichment against MYC target genes with a trend toward MTORC1 signaling genes
same,apoptosis in I-BET151-resistant MLL-AF9 cells,[3],"capable of inducing apoptosis in I-BET151-resistant MLL-AF9 cells, comparable to the I-BETE151-sensitive cells"
same,induction of apoptosis,OPM2 cells [4],even more enhanced apoptosis compared to the combination of two drugs together
same,tumour burden (M-proteins) on treatment,Vk*MYC myeloma cells; SPEP,reduce tumour burden (M-proteins)
same,median survival,Vk*MYC myeloma cells; vehicle 196.5 days,243 days
same,clearance of BRD4 protein with increasing temperature,BRD4 [5],delayed clearance
same,BRD4 and RNA Pol II at MYC locus,BRD4 [6],significant reduction in BRD4 and RNA Pol II
same,displacement of BRD4 from chromatin,BRD4 [6],robust displace ment of BRD4
